The values that follow are results of earlier work, collected in US20030180373A1, “Method for viral inactivation of hydro-alcoholic solutions” (priority 2000, published 2003).

Molecules are shown by their SMILES.

The data set concerns viruses of Norwalk and Norwalk type. The settings on record: disinfectants conventionally used; ethanol at a concentration of 75%.
For `[Na+].[O-]Cl` [bleach], the “Effect of the disinfectant on the virus” value is on record as “capable of destroying the virus”.
In the case of `CCO` [ethanol], the “Effect of the disinfectant on the virus” value was “no effect”.
For `O=CCCCC=O` [glutaraldehyde], the “Effect of the disinfectant on the virus” value is listed as “capable of destroying the virus”.
